Patent US12404246B1, “2-aminomethylimidazole mimics of NS4A and their effect thereof on hepatitis C virus NS3 protease” (King Abdulaziz University, priority 2024, dated 2025)

Key:
[1] = target: T1, HCV NS3 domain of genotype 4a (Hepatitis C virus genotype 4a, UniProt O39929); assay: Binding assay by Differential Static Light Scattering (DSLS): aggregation temperature of NS3; conditions: for ΔTagg (aggregation temperature shift of NS3): NS3 domain 15.0 μM with equimolar compound, shift against NS3 alone
T1 construct: NS3 protease domain 1-181 aa+N-terminal T7 tag and C-terminal His tag; T7 tag (N); made in house; host or cells: E. coli Rosette (DE3) pLysS
Text: In an embodiment, DSLS (Senisterra, Markin et al. 2006) is a preferred method to compare the relative binding potency for binding of a compound of Formula I with HCV NS3. DSLS measure the proteins aggregation temperature (Tagg) as an indicator of its stability (Davis, Walker et al. 2010). It is known that the binding of small molecules to proteins causes shifts of the aggregation temperature (ΔTagg) to higher temperature (Shahul Hameed, Haider et al. 2018). One aspect of this invention is using ΔTagg determination as a method to determine the potency of binding of compounds belonging to formula I to the HCV NS3 protease, in comparison to the native NS4A.
The NS3 domain (15.0 μM), alone or mixed with an equimolar equivalent of tested compound or the NS4A, was added to a binding buffer (20.0 mM HEPES, 10.0 mM DTT, 200 mM NaCl, pH 7.60) to a final volume 100 μL. The mixture was incubated at room temperature with gentle shaking for 2 h. Afterwards, 10 μL of the mixture was transferred into a clear bottomed Nunc 384-well plate and covered by 10 μL paraffin oil to minimize evaporation. Protein aggregation was monitored by tracking the change in scattered light that was detected by a charged coupled device (CCD) camera. Snapshot images of the plate were taken every 0.5° C. The pixel intensities in a preselected region of each well were integrated using image analysis software to generate a value representative of the total amount of scattered light in that region. These intensities were then plotted against temperature for each sample well and fitted to obtain the aggregation temperature (Tagg). Aggregation was monitored and analyzed to assess the effect of NS4A and its synthetic analogues on the stability of the NS3 as an indicator of binding. Each experiment was repeated three times (Triplicate). Statistical analysis was performed using GraphPad Prism v. 8.0® and Instat® v. 3.10 software. The Tagg for the compound was only considered if its […] of the calculated Tagg value.
Each experiment was run as triplicate (Experiment 1, 2 and 3) and the standard deviations (ST.DEV.) were calculated. (results table FIG. 31).

HCV NS3 = HCV NS3 (Hepatitis C virus genotype 4a, UniProt O39929); conditions: mixed with a substrate peptide; cited from earlier work

| Structure (SMILES) | ΔTagg (aggregation temperature shift of NS3) [1] | further results |
| --- | --- | --- |
| CCCCCCNCc1ncc(C(=O)NCc2ccccn2)[nH]1 [Comp 3, 2-((hexylamino)methyl)-N-(pyridin-2-ylmethyl)-1H-imidazole-5-carboxamide] | 0.47 °C | – |
| CNC(=O)CNC(=O)c1cnc(CNCCNC(C)=O)[nH]1 [Comp 8, 2-(((2-acetamidoethyl)amino)methyl)-N-(2-(methylamino)-2-oxoethyl)-1H-imidazole-5-carboxamide] | 0.48 °C | – |
| CCCCCCNCc1nc(C(=O)NCc2ccccn2)c[nH]1 [Comp 9, 2-((hexylamino)methyl)-N-(pyridin-2-ylmethyl)-1H-imidazole-4-carboxamide] | 0.91 °C | – |
| O=C(NCc1ccccn1)c1cnc(CNCCOC2CCCCC2)[nH]1 [Comp 10, 2-(((2-(cyclohexyloxy)ethyl)amino)methyl)-N-(pyridin-2-ylmethyl)-1H-imidazole-5-carboxamide] | 0.43 °C | – |
| CC(C)CCCCCNCc1ncc(C(=O)NCc2ccccn2)[nH]1 [Comp 12, 2-(((6-methylheptyl)amino)methyl)-N-(pyridin-2-ylmethyl)-1H-imidazole-5-carboxamide] | 0.57 °C | – |
| CC(=O)NCCNCc1nc(C(=O)NCc2ccccn2)c[nH]1 [Comp 13, 2-(((2-acetamidoethyl)amino)methyl)-N-(pyridin-2-ylmethyl)-1H-imidazole-5-carboxamide] | 1.35 °C | affinity towards the HCV NS3 protein compared to the native viral peptide cofactor NS4A ([1]; DSLS, FIG. 30-32): equal or higher affinity; Tagg (aggregation temperature of NS3 mixed with the substance) ([1]; NS3 domain 15.0 μM with equimolar substance, incubated 2 h, triplicate, NS3 alone Tagg 43.22° C.): 44.40 °C; ΔTagg higher than that of the HCV NS4A ([1]; relative to the shift caused by NS4A): 14% |
| CCCCCCNC(=O)c1ncc(C(=O)NCCCCNC(=N)N)[nH]1 [N5-(4-guanidinobutyl)-N2-n-hexyl-1H-imidazole-2,5-dicarboxamide] | – | inhibition of HCV NS3 protease function (HCV NS3): able to inhibit the HCV NS3 from functioning as a protease |
